Test results from ChEMBL document CHEMBL3046834, “MODULATION OF FILARIAL GLUTATHIONE-S-TRANSFERASE(S) ACTIVITY: A POSSIBILITY TOWARDS THE SYNTHESIS OF NEW CLASSES OF ANTIFILARIAL AGENTS” (Med Chem Res, 2004).
Active and inactive are the calls of the source. The rule behind the calls is not given here.

Tests used:
Brugia malayi [1] = assay: Antifilarial activity against Brugia malayi isolated from jird assessed as motility at 100 uM after 24 hr by dissecting microscopy; type: functional, organism-based
[2] = Stimulation of GST in Mus musculus (mouse) liver using CDNB as substrate at 100 uM after 10 min by spectrophotometric analysis relative to control; type: ADME, tissue-based
Brugia malayi [3] = assay: Antifilarial activity against Brugia malayi isolated from jird assessed as inhibition of MTT reduction at 100 uM after 1 hr; type: functional
[4] = test system: GST (glutathione S-transferase); assay: Inhibition of GST in Mus musculus (mouse) liver using CDNB as substrate at 100 uM after 10 min by spectrophotometric analysis relative to control; type: tissue-based; conditions: probe CDNB

| SMILES | Activity (Brugia malayi [1]) | Activity [2] [%] | inhibition at 100 µM (Brugia malayi [3]) [%] | inhibition at 10 min, 100 µM [4] [%] |
| --- | --- | --- | --- | --- |
| CCOC(=O)CC(NC(=O)[C@@H]1CCCN1C(=O)OCC1c2ccccc2-c2ccccc21)C1O[C@H]2OC(C)(C)O[C@H]2[C@@H]1OC (stereo not given in full) | Active | 197 | 37 |  |
| CCCCN(C(=S)Nc1ccccc1Cl)C(CC(=O)OCC)C1O[C@H]2OC(C)(C)O[C@H]2[C@@H]1OC (stereo not given in full) | Active | 38 |  |  |
| CCOC(=O)CC(NC(=O)[C@@H](N)C(C)C)C1O[C@H]2OC(C)(C)O[C@H]2[C@@H]1OC (stereo not given in full) | Active | 20 |  |  |
| CCCCc1ccc(N2C(=O)CC([C@H]3O[C@@H]4OC(C)(C)O[C@@H]4[C@H]3OC)N(c3ccco3)C2=O)cc1 (stereo not given in full) | inactive |  | 57 |  |
| CO[C@@H]1[C@H]2OC(C)(C)O[C@H]2O[C@@H]1C1CC(=O)N(c2ccc(F)cc2)C(=O)N1c1ccco1 (stereo not given in full) | inactive |  | 70 |  |
| COc1ccc(CN2C(=O)N(Cc3ccccc3)C(=O)CC2[C@H]2O[C@@H]3OC(C)(C)O[C@@H]3[C@H]2OCc2ccccc2)cc1 (stereo not given in full) | inactive |  |  |  |
| COc1ccc(CN2C(=O)N(c3cccc(C(C)=O)c3)C(=O)CC2[C@H]2O[C@@H]3OC(C)(C)O[C@@H]3[C@H]2OCc2ccccc2)cc1 (stereo not given in full) | inactive | 13 |  |  |
| CO[C@@H]1[C@H]2OC(C)(C)O[C@H]2O[C@@H]1C1CC(=O)N(c2ccc(Br)cc2)C(=O)N1c1ccco1 (stereo not given in full) | inactive |  | 32 | 32 |
| COC(=O)CC(NC(=S)Nc1ccccc1)C1O[C@H]2OC(C)(C)O[C@H]2[C@@H]1OCc1ccccc1 (stereo not given in full) | Active |  | 69 |  |
| CCOC(=O)CC(NC(=O)[C@@H]1CCCN1)C1O[C@H]2OC(C)(C)O[C@H]2[C@@H]1OC (stereo not given in full) | Active | 28 |  |  |
| CC[C@H](C)[C@@H](C(=O)NC(CC(N)=O)C1O[C@H]2OC(C)(C)O[C@H]2[C@@H]1OC)N(C(=O)Nc1ccccc1C)c1ccco1 (stereo not given in full) | Active |  |  |  |
| CO[C@@H]1[C@H]2OC(C)(C)O[C@H]2O[C@@H]1C1CC(=O)N(c2cccc(C#N)c2)C(=O)N1Cc1ccc(Br)cc1 (stereo not given in full) | inactive |  | 37 | 19 |
| CC1(C)O[C@@H]2OC(CNCCCCCCCNCC3O[C@@H]4OC(C)(C)O[C@@H]4[C@H]3OCc3ccccc3)[C@@H](OCc3ccccc3)[C@@H]2O1 (stereo not given in full) | inactive |  |  |  |
| CO[C@@H]1[C@H]2OC(C)(C)O[C@H]2O[C@@H]1C1CC(=O)N(c2cccc(C(C)=O)c2)C(=O)N1Cc1ccc(Br)cc1 (stereo not given in full) | inactive |  |  | 27 |
| CC1(C)O[C@H]2O[C@H](C3CC(=O)N(Cc4ccccc4)C(=O)N3Cc3ccc(Br)cc3)[C@H](OCc3ccccc3)[C@H]2O1 (stereo not given in full) | inactive |  | 24 |  |
| CCCCN1C(=S)N(c2cccc(Cl)c2)C(=O)CC1[C@H]1O[C@@H]2OC(C)(C)O[C@@H]2[C@H]1OC (stereo not given in full) | Active | 21 |  |  |
| COc1ccc(CN2C(=O)N(c3cccc(C(C)=O)c3)C(=O)CC2[C@H]2O[C@@H]3OC(C)(C)O[C@@H]3[C@H]2OC)cc1 (stereo not given in full) | inactive |  | 59 | 41 |
| COc1ccc(CN2C(=O)N(c3cc(Cl)cc(Cl)c3)C(=O)CC2[C@H]2O[C@@H]3OC(C)(C)O[C@@H]3[C@H]2OCc2ccccc2)cc1 (stereo not given in full) | inactive | 12 | 92 |  |
| CCOc1ccc(N2C(=O)CC([C@H]3O[C@@H]4OC(C)(C)O[C@@H]4[C@H]3OC)N(Cc3ccccc3)C2=O)cc1 (stereo not given in full) | inactive |  | 50 |  |
| Cc1cc(N2C(=O)CC([C@H]3O[C@@H]4OC(C)(C)O[C@@H]4[C@H]3OCc3ccccc3)N(Cc3ccc(Br)cc3)C2=O)ccc1Cl (stereo not given in full) | Active |  |  |  |

| SMILES | Activity (Brugia malayi [1]) | Activity [2] [%] | inhibition at 100 µM (Brugia malayi [3]) [%] | inhibition at 10 min, 100 µM [4] [%] |
| --- | --- | --- | --- | --- |
| COc1ccc(N(C(=O)NCc2ccccc2)[C@@H](CC(=O)O)C(=O)NC(CC(N)=O)C2O[C@H]3OC(C)(C)O[C@H]3[C@@H]2OC)cc1 (stereo not given in full) | inactive |  |  |  |
| CO[C@@H]1[C@H]2OC(C)(C)O[C@H]2O[C@@H]1C1CC(=O)N(Cc2ccccc2)C(=O)N1Cc1ccc(Br)cc1 (stereo not given in full) | Active | 41 |  |  |
| CO[C@@H]1C(C(CC(N)=O)N(C(=O)Nc2ccccc2C)C(CC(N)=O)C2O[C@@H]3OC(C)(C)O[C@@H]3[C@H]2OC)O[C@H]2OC(C)(C)O[C@H]21 (stereo not given in full) | inactive |  | 20 |  |
| CCOc1ccc(N2C(=O)CC([C@H]3O[C@@H]4OC(C)(C)O[C@@H]4[C@H]3OC)N(c3ccco3)C2=O)cc1 (stereo not given in full) | inactive |  | 34 | 26 |
| CC(=O)c1ccc(N2C(=O)CC([C@H]3O[C@@H]4OC(C)(C)O[C@@H]4[C@H]3OCc3ccccc3)NC2=O)cc1 (stereo not given in full) | Active | 19 | 27 |  |
| CCCCCCCCCCCCNC(CC(=O)NO)C1O[C@H]2OC(C)(C)O[C@H]2[C@@H]1OCc1ccccc1 (stereo not given in full) | Active | 57 | 98 |  |
| CO[C@@H]1[C@H]2OC(C)(C)O[C@H]2O[C@@H]1C1CC(=O)N(c2ccc(Cl)c(C)c2)C(=O)N1Cc1ccc(Br)cc1 (stereo not given in full) | inactive |  | 45 |  |
| COc1ccc(CN2C(=O)N(c3cccc(C#N)c3)C(=O)CC2[C@H]2O[C@@H]3OC(C)(C)O[C@@H]3[C@H]2OC)cc1 (stereo not given in full) | inactive |  | 34 | 20 |
| CCOC(=O)CC(C1O[C@H]2OC(C)(C)O[C@H]2[C@@H]1OC)N(Cc1ccccc1O)C(=O)Nc1cccc(C(C)=O)c1 (stereo not given in full) | Active |  | 41 | 23 |
| CCCCCCCCCCCCCCCCNC(CC(=O)NO)C1O[C@H]2OC(C)(C)O[C@H]2[C@@H]1OC (stereo not given in full) | Active | 214 | 92 |  |
| CC1(C)O[C@H]2O[C@H](C3CC(=O)N(Cc4ccccc4)C(=O)N3Cc3ccccc3)[C@H](OCc3ccccc3)[C@H]2O1 (stereo not given in full) | inactive | 13 | 65 |  |
| CC1(C)O[C@@H]2OC(CNCCCCCCCCCCCCNCC3O[C@@H]4OC(C)(C)O[C@@H]4[C@H]3OCc3ccccc3)[C@@H](OCc3ccccc3)[C@@H]2O1 (stereo not given in full) | Active |  | 94 |  |
| CO[C@@H]1[C@H]2OC(C)(C)O[C@H]2O[C@@H]1C1CC(=O)N(Cc2ccccc2)C(=O)N1Cc1ccccc1 (stereo not given in full) | inactive |  |  |  |
| CCOC(=O)CC(NCCCCCCCCCCCCNC(CC(=O)OCC)C1O[C@@H]2OC(C)(C)O[C@@H]2[C@H]1OCc1ccccc1)C1O[C@H]2OC(C)(C)O[C@H]2[C@@H]1OCc1ccccc1 (stereo not given in full) | inactive |  |  |  |
| CO[C@@H]1[C@H]2OC(C)(C)O[C@H]2O[C@@H]1C1CC(=O)N(c2ccc(Cl)cc2)C(=O)N1 (stereo not given in full) | inactive | 24 | 52 |  |
| CO[C@@H]1[C@H]2OC(C)(C)O[C@H]2O[C@@H]1C1CC(=O)N(c2cccc(C#N)c2)C(=O)N1Cc1ccccc1 (stereo not given in full) | inactive |  |  | 32 |
| CO[C@@H]1C(C(CC(N)=O)NC(=O)Nc2ccc(C)c(Cl)c2)O[C@H]2OC(C)(C)O[C@H]21 (stereo not given in full) | inactive |  |  |  |
| CCCCN1C(=S)N(c2ccccc2Cl)C(=O)CC1[C@H]1O[C@@H]2OC(C)(C)O[C@@H]2[C@H]1OC (stereo not given in full) | inactive | 64 |  |  |
| CCOC(=O)CC(NCCCCCCCNC(CC(=O)OCC)C1O[C@@H]2OC(C)(C)O[C@@H]2[C@H]1OCc1ccccc1)C1O[C@H]2OC(C)(C)O[C@H]2[C@@H]1OCc1ccccc1 (stereo not given in full) | Active |  |  |  |
| CCCCc1ccc(N2C(=O)CC([C@H]3O[C@@H]4OC(C)(C)O[C@@H]4[C@H]3OC)N(Cc3ccccc3)C2=O)cc1 (stereo not given in full) | inactive |  | 76 | 13 |
